The conditions of assay [1]: 2.67 g/day for 14 days, patients with a herniated disc; cited from earlier work.
Assay [2] deals with cell lines from hepatocarcinomas. Particulars: in vitro, 10 μm to 1 mM; cited from earlier work.
The conditions of assay [3]: intrathecal injection, diabetic rats; cited from earlier work.
Another assay in a line: Weight of the spleen. Format: in vivo, male C57BL/6 mice. The source says: The animals are euthanized, then the spleen is removed from the mice and weighed using a precision balance. In addition to the ten groups of mice that each received a different diet, as described above, an eleventh group of animals was included for this study. These were male C57BL/6 mice having the same basic physiological characteristics as the mice in the other ten groups but that had not received grafts of Lewis carcinoma cells.

Assay [4] relates to Lewis lung carcinoma (3LL). The assay is described as follows: Tumour growth (tumour volume), Example 1. The class given is in vivo, male C57BL/6 mice. How it is done: Male C57BL/6 mice, aged 9 weeks and weighing 20 g (Janvier breeding station, Le Genest St Isle, France), are acclimatized for 1 week before the start of the study. Handling of the animals is carried out in accordance with the ethical directives for experiments and according to the recommendations of the European Biomedical Research Association. Cells from Lewis lung carcinoma (3LL) were obtained from the ECACC (European Collection of Cell Cultures) and grafted by intramuscular injection in the hind paws of male C57BL/6 mice by the method described previously (Hergueux J. et al., Exp. […] The grafted mice are distributed randomly in the cages in groups of 5 individuals. The tumour becomes palpable some days after grafting took place. […] Cancer, 1984, 34(2), 277-281).

A further assay relates to noradrenaline release. Conditions: intravenous injection, 1 to 100 mg/kg; cited from earlier work.
Assay [5] concerns putrescine, spermidine and spermine. The assay is described as follows: Tumour levels of polyamines. Format: in vivo, male C57BL/6 mice. Particulars: for decrease of the tumour level of putrescine / decrease of the tumour level of spermidine / decrease of the tumour level of spermine: relative to diet containing a normal level of polyamines. The procedure:
The level of polyamines is measured in the tumour formed at the site of inoculation of the Lewis carcinoma cells. […] After incubation for at least 16 h at 4° C., the cells are centrifuged for 15 minutes at 3500 rpm at 4° C. The supernatant that contains the polyamines is removed and is used for determination of the polyamines. The polyamines are determined by the method described previously (Seiler N et al., 1996, Cancer Research, 56, 5624-5630). The three principal polyamines present in mammals (putrescine, spermidine and spermine) were determined for the ten groups of mice that had each received different nutrition. The results are illustrated in FIG. 3.

The target of another assay is T1, ODC (Homo sapiens, UniProt P11926).
T1 sequence (P11926 1-461): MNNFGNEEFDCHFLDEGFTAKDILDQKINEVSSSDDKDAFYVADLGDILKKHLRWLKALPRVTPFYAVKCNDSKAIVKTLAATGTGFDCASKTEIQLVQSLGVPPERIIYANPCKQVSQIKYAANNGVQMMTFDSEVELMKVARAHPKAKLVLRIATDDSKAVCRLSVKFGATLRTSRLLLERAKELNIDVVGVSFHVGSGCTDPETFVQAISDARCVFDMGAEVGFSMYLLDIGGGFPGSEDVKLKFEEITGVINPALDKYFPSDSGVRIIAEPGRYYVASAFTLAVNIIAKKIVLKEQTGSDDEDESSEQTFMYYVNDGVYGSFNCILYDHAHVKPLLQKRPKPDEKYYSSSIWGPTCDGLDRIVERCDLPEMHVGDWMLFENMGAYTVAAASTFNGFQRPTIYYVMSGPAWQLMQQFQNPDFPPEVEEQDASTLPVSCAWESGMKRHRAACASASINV
Conditions: renal cells; cited from earlier work.

For assay [6] the following is noted: animals injected with 0.3 nmol; cited from earlier work.
For assay [7], the system named is Lewis lung carcinoma (3LL). The assay is described as follows: Pulmonary metastatic invasion. The class given is in vivo, male C57BL/6 mice. Particulars: for additional benefit in terms of metastatic process: added to the diet depleted of cadaverine, putrescine, spermidine and spermine. The procedure:
Cells from Lewis lung carcinoma (3LL) were obtained from the ECACC (European Collection of Cell Cultures) and grafted by intramuscular injection in the hind paws of male C57BL/6 mice by the method described previously (Hergueux J. et al., Exp. […] The grafted mice are distributed randomly in the cages in groups of 5 individuals. […] The metastatic dissemination is expressed as percentage invasion relative to the total surface area of the lungs. The percentage metastatic invasion was measured in the mice of the ten groups described above, each having received different nutrition.

The subject of assay [8] is Lewis lung carcinoma (3LL). The assay is described as follows: Tumour growth (tumour volume) in combination with an anticancer drug, Example 2. Format: in vivo, male C57BL/6 mice. How it is done: Male C57BL/6 mice, aged 9 weeks and weighing 20 g (Janvier breeding station, Le Genest St Isle, France), are acclimatized for 1 week before the start of the study. Handling of the animals is carried out in accordance with the ethical directives for experiments and according to the recommendations of the European Biomedical Research Association.
After 20 days, the tumour cells are collected and dispersed in PBS, counted and diluted to reach 0.5×10^6 cells/100 μL, before being grafted in the right hind paw of the mice. The grafted mice are distributed randomly in the cages in groups of 5 individuals.
The tumour becomes palpable some days after the grafting took place. The animals are sacrificed 19 days after grafting the tumour cells.
The treatment is set up 6 days after grafting, when the tumour is palpable, and is administered 7 days a week and comprises the intake ad libitum of the normal nutrition or of the test solutes as well as drinking water.
The animal model (C57BL/6 mouse) and the tumour model (Lewis carcinoma) are described above. The mice are grafted with 0.5×10^6 tumour cells, by intramuscular injection in one of the hind paws.

The mark [9] stands for this setting: depleted diet + agmatine 18.4 mg/kg of food.
[10] abbreviates: depleted diet + agmatine 184 mg/kg of food.
Where [11] appears, read: depleted diet + agmatine 1840 mg/kg of food.
[12] abbreviates: cyclophosphamide (CY) 9 mg·kg^−1·week^−1.
The mark [13] stands for this setting: cyclophosphamide (CY) 90 mg·kg^−1·week^−1.
The mark [14] stands for this setting: tumour, neomycin based on a diet depleted of cadaverine, putrescine, spermidine and spermine.

Consider `N=C(N)NCCCCN.O=S(=O)(O)O` [agmatine sulphate], for which, in assay [1], the perception of pain result is recorded as “attenuated perception of pain”.

For `N=C(N)NCCCCN` [agmatine], the cell cycle result in assay [2] is listed as “stopping of the cancer cells in phase G2/M of the cell cycle”. The “tactile or thermal allodynia and hyperalgesia” value in assay [3] was “suppresses tactile or thermal allodynia as well as hyperalgesia”. In addition, in the assay “Weight of the spleen” (agmatine added to the depleted diet, regardless of the dose), the “additional effect on the weight of the spleen” value is listed as “no additional effect”. The “increase of the antitumour effect of the diet depleted of cadaverine, putrescine, spermidine and spermine” value in assay [4] (agmatine 18.4 mg/kg of food) was 8%; in [4] (agmatine 184 mg/kg of food), 3%; in [4] (agmatine 1840 mg/kg of food), 13%. Also, in the assay with noradrenaline release, the blood pressure entry is reported as “decrease in blood pressure”. For the same compound, the “decrease of the tumour level of putrescine” value came to 35% in [5] (setting [9]), 14% in [5] (setting [10]) and 50% in assay [5] (setting [11]). Further, the “decrease of the tumour level of spermidine” value in [5] (setting [9]) is 10%; in assay [5] (setting [10]) it was 12%; in assay [5] (setting [11]), 10%. In addition, the “decrease of the tumour level of spermine” value in [5] (setting [9]) came out at 31%; in [5] (setting [10]), 24%; in [5] (setting [11]) it was 16%. Moreover, the “inhibition of ODC / synthesis of polyamines” value on ODC was “dose-dependent inhibition of ODC”. Moreover, in assay [6], the “perception of pain (allodynia)” value is listed as “anti-allodynic effect”. In addition, the “additional benefit in terms of metastatic process” value in assay [7] is listed as “does not appear to bring any additional benefit”.

For the compound `O=P1(N(CCCl)CCCl)NCCCO1` (stereo not drawn) [cyclophosphamide], in assay [8] (setting [12]), the “Monitoring of tumour volume (in cm^3) D0” value stood at 0 cm^3, the “Monitoring of tumour volume (in cm^3) D2” value turned out to be 0.08 cm^3, the “Monitoring of tumour volume (in cm^3) D5” value was 0.2 cm^3 and the “Monitoring of tumour volume (in cm^3) D8” value is recorded as 0.296 cm^3. Further, in assay [8] (setting [12]), the “Monitoring of tumour volume (in cm^3) D10” value is 0.64 cm^3, the “Monitoring of tumour volume (in cm^3) D12” value stood at 1.2 cm^3, the “Monitoring of tumour volume (in cm^3) D15” value was determined as 2.64 cm^3 and the “Monitoring of tumour volume (in cm^3) D18” value is 3.0 cm^3. In addition, the “Tumour volume on D18 (% relative to UAR)” value in assay [8] (setting [12]) was −20%. Further, in assay [8] (setting [13]), the “Monitoring of tumour volume (in cm^3) D0” value is recorded as 0 cm^3, the “Monitoring of tumour volume (in cm^3) D2” value worked out at 0.02 cm^3, the “Monitoring of tumour volume (in cm^3) D5” value came out at 0.05 cm^3 and the “Monitoring of tumour volume (in cm^3) D8” value amounted to 0.074 cm^3. In assay [8] (setting [13]), the “Monitoring of tumour volume (in cm^3) D10” value amounted to 0.16 cm^3, the “Monitoring of tumour volume (in cm^3) D12” value worked out at 0.3 cm^3, the “Monitoring of tumour volume (in cm^3) D15” value came out at 0.66 cm^3 and the “Monitoring of tumour volume (in cm^3) D18” value turned out to be 0.7 cm^3. The “Tumour volume on D18 (% relative to UAR)” value in assay [8] (setting [13]) is on record as −81%.

Consider neomycin, for which the “mean value of the weight of the spleen” value in “Weight of the spleen” (grafted mice, 19 days after grafting, no agmatine, neomycin where given 2 mg/ml in drinking water) is 151 mg. In addition, in “Weight of the spleen” (groups 2, 4 and 6 (normal diet; depleted diet; depleted diet + agmatine 18.4 mg/kg of food)), the “effect of neomycin on the weight of the spleen” value was “decrease in the weight of the spleen”. Further, the “effect of neomycin on the weight of the spleen” value in “Weight of the spleen” (groups 8 and 10 (depleted diet + agmatine 184 and 1840 mg/kg of food)) was “increase in the weight of the spleen”. Also, the “evolution of tumour volume” value in [4] (neomycin 2 mg/ml in drinking water, diet containing a normal level of polyamines) is “no effect”. Moreover, in [5] (tumour, based on a normal diet), the “decrease in the level of putrescine” value is 17%, the “effect on the level of spermidine” value is listed as “no effect” and the “increase in the level of spermine” value was 7%. In assay [5] (setting [14]), the “decrease in the level of spermine” value came out at 5%, the “increase in the level of putrescine” value came out at 17% and the “increase in the level of spermidine” value is listed as 24%. For the same compound, the “mean value of pulmonary metastatic invasion” value in [7] (19 days after grafting, no agmatine, neomycin where given 2 mg/ml in drinking water) came out at 11%. Moreover, the “additional benefit in terms of metastatic process” value in assay [7] is listed as “does not lead to any additional benefit”. Further, the “decrease in metastatic invasion” value in assay [7] (relative to mice on a diet containing a normal level of polyamines without antibiotic) was found to be 60%.

The record behind these values is US20150005387A1, “COMPOSITION CONTAINING AGMATINE, AND USES THEREOF IN PREPARING DRUGS OR NEUTRACEUTICAL SUBSTANCES” (priority 2012, published 2015).
